Where two headings read alike, the source gives them in different places. Starred links: 1 amine or outer side, 2 acyl side, 3 side chain; linkers in the order of their positions; H or OH if unused. Positions of bridges follow the written chain, without caps; N, C: chain ends. Non-standard residues stand in square brackets, D forms with d. Residues, ends and D or L forms follow the SMILES beside them. Groups on a side chain read outwards from the residue. *: point of attachment. NMePhe(4-COOH) = CN[C@@H](Cc1ccc(C(=O)O)cc1)C(=O)O; X1 = O=C([C@H](Cc1cccc(C(=O)[*:3])c1)N[*:1])[*:2]; NMePhe(3-Cl) = CN[C@@H](Cc1cccc(Cl)c1)C(=O)O; Piperazinyl(4-CH2COOH) = O=C(O)CN1CCN(*)CC1; 3Pal(6-NH2) = Nc1ccc(C[C@H](N)C(=O)O)cn1; NMeY = CN[C@@H](Cc1ccc(O)cc1)C(=O)O; NH(CH2CH2O)4Me = COCCOCCOCCOCCN*; 3Pal = N[C@@H](Cc1cccnc1)C(=O)O; 4Pal = N[C@@H](Cc1ccncc1)C(=O)O; PEG4 = NCCOCCOCCOCCOCCC(=O)O; Carboxymethyl = O=C(O)C*; CO = O=C([*:1])[*:2]
Target: T1, human transferrin receptor (hTfR) (Homo sapiens, UniProt P02786)
T1 construct: made in house
Assay: Evaluation of molecular interaction between transferrin receptor (hTfR) and peptide using surface plasmon resonance (SPR)
Format: binding
Procedure, shortened: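 SPR, single-cycle kinetics; hTfR dimer on NTA chip via Ni capture plus EDC/NHS coupling. Analyte peptide 100, 50, 25, 10, 5 nM. Running buffer: 10 mM HEPES pH 8.0, 150 mM NaCl, 0.05% Tween 20, 0.1% BSA, 1.0% DMSO. KD by least-squares fit.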

[1] = surface plasmon resonance, binding to hTfR, KD class symbol, read-out: SPR (KD value)
[2] = KD class for binding to hTfR by SPR, peptide with the linker shown in the same line, 'low signal indicates no activity', read-out: SPR

T1 sequence (P02786 89-760 limits assumed): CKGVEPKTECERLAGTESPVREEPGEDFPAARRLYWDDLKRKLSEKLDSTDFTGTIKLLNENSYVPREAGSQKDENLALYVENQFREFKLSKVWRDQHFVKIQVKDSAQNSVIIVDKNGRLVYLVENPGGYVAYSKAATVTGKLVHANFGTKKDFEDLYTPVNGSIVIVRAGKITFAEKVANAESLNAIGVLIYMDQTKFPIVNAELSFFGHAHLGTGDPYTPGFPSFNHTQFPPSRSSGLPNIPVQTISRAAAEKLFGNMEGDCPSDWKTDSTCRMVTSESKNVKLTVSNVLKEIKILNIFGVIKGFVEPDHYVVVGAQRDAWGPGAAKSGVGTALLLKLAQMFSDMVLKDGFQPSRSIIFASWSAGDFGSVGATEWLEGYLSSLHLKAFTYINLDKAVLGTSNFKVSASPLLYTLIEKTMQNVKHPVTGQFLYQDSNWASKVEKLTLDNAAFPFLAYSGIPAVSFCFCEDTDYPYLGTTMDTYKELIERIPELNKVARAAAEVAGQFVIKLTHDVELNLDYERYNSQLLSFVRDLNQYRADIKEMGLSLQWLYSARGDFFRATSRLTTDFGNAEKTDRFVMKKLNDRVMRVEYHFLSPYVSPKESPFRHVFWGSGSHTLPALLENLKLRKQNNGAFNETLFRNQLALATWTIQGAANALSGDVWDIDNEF

Structure (SMILES) | Kd [1] | Kd [2]
CC[C@H](C)[C@@H]1NC(=O)[C@H](Cc2ccc(OCC(=O)O)cc2)NC(=O)[C@H](Cc2ccc(O)cc2)NC(=O)[C@H](CC(N)=O)NC(=O)[C@H](Cc2c[nH]c3ccccc23)NC(=O)[C@H](C(C)C)NC(=O)[C@H](Cc2cccc(Cl)c2)N(C)C(=O)[C@H](C(C)C)NC(=O)[C@H](C)NC(=O)CSC[C@@H](C(=O)NCCOCCOCCOCCOCCC(N)=O)NC(=O)[C@H](Cc2ccc(C(=O)NCCOCCOCCOCCOC)cc2)N(C)C(=O)[C@H](Cc2cccc(C(=O)NCCOCCOCCOCCOC)c2)NC(=O)[C@H](CCCNC(=N)N)NC(=O)[C@H](CCC(N)=O)NC(=O)[C@H]([C@@H](C)CC)NC1=O [compound 127] ({CH2CO}-AV[NMePhe(3-Cl)]VWNYY(Carboxymethyl)IIQR[X1](NH(CH2CH2O)4Me)[NMePhe(4-COOH)](NH(CH2CH2O)4Me)C[PEG4]-NH2; thioether N-15) | 1 to 100 nM | –
CC[C@H](C)[C@@H]1NC(=O)[C@H](Cc2ccc(OC)cc2)NC(=O)[C@H](Cc2ccc(O)cc2)NC(=O)[C@H](CC(N)=O)NC(=O)[C@H](Cc2c[nH]c3ccc(Cl)cc23)NC(=O)[C@H](C(C)C)NC(=O)[C@H](Cc2ccc(F)cc2)N(C)C(=O)[C@H](C(C)C)NC(=O)[C@H](C)NC(=O)CSC[C@@H](C(N)=O)NC(=O)[C@H](Cc2ccc(O)cc2)N(C)C(=O)[C@H](Cc2ccccc2)NC(=O)[C@H](CCCCNC(=O)CCOCCOCCOCCOC)NC(=O)[C@H](CCCNC(=N)N)N(C)C(=O)[C@H]([C@@H](C)CC)NC1=O [compound 4] | 1 to 100 nM | –
CC[C@H](C)[C@@H]1NC(=O)[C@H](Cc2ccc(OCC(=O)O)cc2)NC(=O)[C@H](Cc2ccc(N)nc2)NC(=O)[C@H](CC(N)=O)NC(=O)[C@H](Cc2c[nH]c3ccccc23)NC(=O)[C@H](C(C)C)NC(=O)[C@H](Cc2cccc(Cl)c2)N(C)C(=O)[C@H](C(C)C)NC(=O)[C@H](C)NC(=O)CSC[C@@H](C(=O)NCCOCCOCCOCCOCCC(N)=O)NC(=O)[C@H](Cc2ccc(O)cc2)N(C)C(=O)[C@H](Cc2ccncc2)NC(=O)[C@H](CCCCNC(=O)N2CCN(CC(=O)O)CC2)NC(=O)[C@H](CCC(=O)NCCOCCOCCOCCOC)NC(=O)[C@H]([C@@H](C)CC)NC1=O [compound 118] ({CH2CO}-AV[NMePhe(3-Cl)]VWN[3Pal(6-NH2)]Y(Carboxymethyl)IIE(NH(CH2CH2O)4Me)K([CO-Piperazinyl(4-CH2COOH)])[4Pal][NMeY]C[PEG4]-NH2; thioether N-15) | 1 to 100 nM | –
CC[C@H](C)[C@@H]1NC(=O)[C@H](Cc2ccc(OC)cc2)NC(=O)[C@H](Cc2ccc(O)cc2)NC(=O)[C@H](CC(N)=O)NC(=O)[C@H](Cc2c[nH]c3ccc(Cl)cc23)NC(=O)[C@H](C(C)C)NC(=O)[C@H](Cc2ccc(F)cc2)N(C)C(=O)[C@H](C(C)C)NC(=O)[C@H](C)NC(=O)CSC[C@@H](C(=O)NCC(=O)N[C@@H](CCCCN=[N+]=[N-])C(N)=O)NC(=O)[C@H](Cc2ccc(O)cc2)N(C)C(=O)[C@H](Cc2ccccc2)NC(=O)[C@H](CCCNC(=N)N)NC(=O)[C@H](CCCNC(=N)N)NC(=O)[C@H]([C@@H](C)CC)NC1=O [894_3156] | – | 1 to 100 nM
CC[C@H](C)[C@@H]1NC(=O)[C@H](Cc2ccc(OC)cc2)NC(=O)[C@H](Cc2ccc(O)cc2)NC(=O)[C@H](CC(N)=O)NC(=O)[C@H](Cc2c[nH]c3ccccc23)N(C)C(=O)[C@H](C(C)C)NC(=O)[C@H](Cc2ccc(F)cc2)N(C)C(=O)[C@H](C(C)C)NC(=O)[C@H](C)NC(=O)CSC[C@@H](C(N)=O)NC(=O)[C@H](Cc2ccc(O)cc2)N(C)C(=O)[C@H](Cc2ccccc2)NC(=O)[C@H](CCCCNC(=O)CCOCCOCCOCCOC)NC(=O)[C@H](CCCNC(=N)N)N(C)C(=O)[C@H]([C@@H](C)CC)NC1=O [compound 8] | 1 to 100 nM | –
CC[C@H](C)[C@@H]1NC(=O)[C@H](Cc2ccc(OCC(=O)O)cc2)NC(=O)[C@H](Cc2ccc(O)cc2)NC(=O)[C@H](CC(N)=O)NC(=O)[C@H](Cc2cn(CC(=O)O)c3ccccc23)NC(=O)[C@H](C(C)C)NC(=O)[C@H](Cc2cccc(Cl)c2)N(C)C(=O)[C@H](C(C)C)NC(=O)[C@H](C)NC(=O)CSC[C@@H](C(=O)NCC(=O)N[C@H](CCC(=O)O)C(=O)N[C@H](CCC(=O)O)C(=O)N[C@H](CCC(=O)O)C(=O)N[C@H](CO)C(=O)N[C@H](CO)C(=O)N[C@@H](CCCCNC(=O)OC[C@@H]2[C@@H]3CCC#CCC[C@@H]32)C(N)=O)NC(=O)[C@H](Cc2ccc(O)cc2)N(C)C(=O)[C@H](Cc2ccccc2)NC(=O)[C@H](CCCNC(=N)N)NC(=O)[C@H](CCCNC(=N)N)NC(=O)[C@H]([C@@H](C)CC)NC1=O [894_3197] | – | < 1 nM
CC[C@H](C)[C@@H]1NC(=O)[C@H](Cc2ccc(OCC(=O)O)cc2)NC(=O)[C@H](Cc2ccc(O)cc2)NC(=O)[C@H](CC(N)=O)NC(=O)[C@H](Cc2c[nH]c3ccccc23)NC(=O)[C@H](C(C)C)NC(=O)[C@H](Cc2cccc(Cl)c2)N(C)C(=O)[C@H](C(C)C)NC(=O)[C@H](C)NC(=O)CSC[C@@H](C(=O)NCCOCCOCCOCCOCCC(N)=O)NC(=O)[C@H](Cc2ccc(O)cc2)N(C)C(=O)[C@H](Cc2ccccc2)NC(=O)[C@H](CCCNC(=N)N)NC(=O)[C@H](CCC(=O)NCCOCCOCCOCCOC)NC(=O)[C@H]([C@@H](C)CC)NC1=O [compound 113] | 1 to 100 nM | –
CC[C@H](C)[C@@H]1NC(=O)[C@H](Cc2ccc(OCC(=O)O)cc2)NC(=O)[C@H](Cc2ccc(O)cc2)NC(=O)[C@H](CC(N)=O)NC(=O)[C@H](Cc2c[nH]c3ncccc23)NC(=O)[C@H](C(C)C)NC(=O)[C@H](Cc2cccc(Cl)c2)N(C)C(=O)[C@H](C(C)C)NC(=O)[C@H](C)NC(=O)CSC[C@@H](C(=O)NCCOCCOCCOCCOCCC(N)=O)NC(=O)[C@H](Cc2ccc(C(=O)NCCOCCOCCOCCOC)cc2)N(C)C(=O)[C@H](Cc2cccc(C(=O)NCCOCCOCCOCCOC)c2)NC(=O)[C@H](CCCNC(=N)N)NC(=O)[C@H](CCC(N)=O)NC(=O)[C@H]([C@@H](C)CC)NC1=O [compound 131] | 1 to 100 nM | –
CC[C@H](C)[C@@H]1NC(=O)[C@H](Cc2ccc(OCC(=O)O)cc2)NC(=O)[C@H](Cc2ccc(O)cc2)NC(=O)[C@H](CC(N)=O)NC(=O)[C@H](Cc2c[nH]c3ccccc23)NC(=O)[C@H](C(C)C)NC(=O)[C@H](Cc2cccc(Cl)c2)N(C)C(=O)[C@H](C(C)C)NC(=O)[C@H](C)NC(=O)CSC[C@@H](C(=O)NCCOCCOCCOCCOCCC(N)=O)NC(=O)[C@H](Cc2ccc(O)cc2)N(C)C(=O)[C@H](Cc2cccc(C(=O)O)c2)NC(=O)[C@H](CCCNC(=N)N)NC(=O)[C@H](CCCNC(=N)N)NC(=O)[C@H]([C@@H](C)CC)NC1=O [894_0363] | – | 1 to 100 nM
CC[C@H](C)[C@@H]1NC(=O)[C@H](Cc2ccc(OC)cc2)NC(=O)[C@H](Cc2ccc(O)cc2)NC(=O)[C@H](CC(N)=O)NC(=O)[C@H](Cc2c[nH]c3ccc(Cl)cc23)NC(=O)[C@H](C(C)C)NC(=O)[C@H](Cc2ccccc2)N(C)C(=O)[C@H](C(C)C)NC(=O)[C@H](C)NC(=O)CSC[C@@H](C(=O)NCCOCCOCCOCCOCCC(N)=O)NC(=O)[C@H](Cc2ccc(O)cc2)N(C)C(=O)[C@H](Cc2ccccc2)NC(=O)[C@H](CCCNC(=N)N)NC(=O)[C@H](CCCNC(=N)N)NC(=O)[C@H]([C@@H](C)CC)NC1=O [compound 19] | < 1 nM | –
CC[C@H](C)[C@@H]1NC(=O)[C@H](Cc2ccc(OC)cc2)NC(=O)[C@H](Cc2ccc(O)cc2)NC(=O)[C@H](CC(N)=O)NC(=O)[C@H](Cc2cn(CC(=O)O)c3ccccc23)NC(=O)[C@H](C(C)C)NC(=O)[C@H](Cc2cccc(Cl)c2)N(C)C(=O)[C@H](C(C)C)NC(=O)[C@H](C)NC(=O)CSC[C@@H](C(=O)NCC(=O)N[C@H](CCC(=O)O)C(=O)N[C@H](CCC(=O)O)C(=O)N[C@H](CCC(=O)O)C(=O)N[C@H](CO)C(=O)N[C@H](CO)C(=O)N[C@@H](CCCCN=[N+]=[N-])C(N)=O)NC(=O)[C@H](Cc2ccc(O)cc2)N(C)C(=O)[C@H](Cc2ccccc2)NC(=O)[C@H](CCCNC(=N)N)NC(=O)[C@H](CCCNC(=N)N)NC(=O)[C@H](CCC(=O)O)NC1=O [compound 39] | < 1 nM | –
CC[C@H](C)[C@@H]1NC(=O)[C@H](Cc2cccnc2)NC(=O)[C@H](Cc2ccc(N)nc2)NC(=O)[C@H](CC(N)=O)NC(=O)[C@H](Cc2c[nH]c3ccccc23)NC(=O)[C@H](C(C)C)NC(=O)[C@H](Cc2cccc(Cl)c2)N(C)C(=O)[C@H](C(C)C)NC(=O)[C@H](C)NC(=O)CSC[C@@H](C(=O)NCCOCCOCCOCCOCCC(N)=O)NC(=O)[C@H](Cc2ccc(O)cc2)N(C)C(=O)[C@H](Cc2ccccc2)NC(=O)[C@H](CCCNC(=N)N)NC(=O)[C@H](CCCNC(=N)N)NC(=O)[C@H]([C@@H](C)CC)NC1=O [894_0357] ({CH2CO}-AV[NMePhe(3-Cl)]VWN[3Pal(6-NH2)][3Pal]IIRRF[NMeY]C[PEG4]-NH2; thioether N-15) | – | 1 to 100 nM
CC[C@H](C)[C@@H]1NC(=O)[C@H](Cc2ccc(O)cc2)NC(=O)[C@H](Cc2ccc(O)cc2)NC(=O)[C@H](CC(N)=O)NC(=O)[C@H](Cc2c[nH]c3ccc(Cl)cc23)NC(=O)[C@H](C(C)C)NC(=O)[C@H](Cc2ccccc2)N(C)C(=O)[C@H](C(C)C)NC(=O)[C@H](C)NC(=O)CSC[C@@H](C(=O)NCC(=O)N[C@@H](CCCCN=[N+]=[N-])C(N)=O)NC(=O)[C@H](Cc2ccc(O)cc2)N(C)C(=O)[C@H](Cc2ccc(O)cc2)NC(=O)[C@H](CCCNC(=N)N)NC(=O)[C@H](CCCNC(=N)N)NC(=O)[C@H]([C@@H](C)CC)NC1=O [894_3161] | – | 1 to 100 nM
CC[C@H](C)[C@@H]1NC(=O)[C@H](Cc2ccc(OC)cc2)NC(=O)[C@H](Cc2ccc(N)nc2)NC(=O)[C@H](CC(N)=O)NC(=O)[C@H](Cc2cn(CC(=O)O)c3ccccc23)NC(=O)[C@H](C(C)C)NC(=O)[C@H](Cc2cccc(Cl)c2)N(C)C(=O)[C@H](C(C)C)NC(=O)[C@H](C)NC(=O)CSC[C@@H](C(=O)NCC(=O)N[C@@H](CCCCN=[N+]=[N-])C(N)=O)NC(=O)[C@H](Cc2ccc(O)cc2)N(C)C(=O)[C@H](Cc2ccncc2)NC(=O)[C@H](CCCNC(=N)N)NC(=O)[C@H](CCCNC(=N)N)NC(=O)[C@H]([C@@H](C)CC)NC1=O [894_3187] | – | 1 to 100 nM
